Test results from patent US7834045B2, “N-substituted pyrazolyl carboxanilides” (Bayer CropScience AG, priority 2003, dated 2010).
Each block holds one compound with its values, some of them ahead of it.

Experiments:
Puccinia recondita = experiment: Puccinia test (wheat)/protective; assay type: in vivo; conditions: protective, application rate 500 g/ha, evaluation 10 days after inoculation
Description: • Solvent: 25 parts by weight of N,N-dimethylacetamide • Emulsifier: 0.6 part by weight of alkylaryl polyglycol ether To produce a suitable preparation of active compound, 1 part by weight of active compound is mixed with the stated amounts of solvent and emulsifier, and the concentrate is diluted with water to the desired concentration. To test for protective activity, young plants are sprayed with the preparation of active compound at the stated application rate. After the spray coating has dried on, the plants are sprayed with a conidia suspension of Puccinia recondita. The plants remain in an incubation cabinet at 20° C. and 100% relative atmospheric humidity for 48 hours. The plants are then placed in a greenhouse at a temperature of about 20° C. and a relative atmospheric humidity of 80% to promote the development of rust pustules. Evaluation is carried out 10 days after the inoculation. 0% means an efficacy which corresponds to that of the control, whereas an efficacy of 100% means that no infection is observed.

Sphaerotheca fuliginea = experiment: Sphaerotheca test (cucumber)/protective; assay type: in vivo; conditions: protective, application rate 750 g/ha, evaluation 7 days after inoculation
Description: • Solvent: 49 parts by weight of N,N-dimethylformamide • Emulsifier: 1 part by weight of alkylaryl polyglycol ether To produce a suitable preparation of active compound, 1 part by weight of active compound is mixed with the stated amounts of solvent and emulsifier, and the concentrate is diluted with water to the desired concentration. To test for protective activity, young cucumber plants are sprayed with the preparation of active compound at the stated application rate. 1 day after the treatment, the plants are inoculated with a spore suspension of Sphaerotheca fuliginea. The plants are then placed in a greenhouse at 70% relative atmospheric humidity and a temperature of 23° C. Evaluation is carried out 7 days after the inoculation. 0% means an efficacy which corresponds to that of the control, whereas an efficacy of 100% means that no infection is observed.

[1] = log P determination by HPLC on reversed-phase column (EEC Directive 79/831 Annexe V.A8); assay type: physicochemical; conditions: reversed-phase HPLC column (C 18), pH 2.3, C 18, 43° C., preparation examples
Description: The log P values given in the preparation examples and tables above are determined in accordance with EEC Directive 79/831 Annexe V.A8 by HPLC (High Performance Liquid Chromatography) on a reversed-phase column (C 18). Temperature: 43° C.
The determination in the acidic range is carried out at pH 2.3 using the mobile phases 0.1% aqueous phosphoric acid and acetonitrile; linear gradient from 10% acetonitrile to 90% acetonitrile.
Calibration was carried out using unbranched alkan-2-ones (with 3 to 16 carbon atoms) with known log P values (determination of the log P values by the retention times using linear interpolation between two successive alkanones).

Podosphaera leucotricha = experiment: Podosphaera test (apple)/protective; assay type: in vivo; conditions: protective, application rate 100 g/ha, evaluation 10 days after inoculation
Description: (§1) • Solvents: 24.5 parts by weight of acetone • 24.5 parts by weight of dimethylacetamide • Emulsifier: 1 part by weight of alkylaryl polyglycol ether
(§2) To produce a suitable preparation of active compound, 1 part by weight of active compound is mixed with the stated amounts of solvents and emulsifier, and the concentrate is diluted with water to the desired concentration.
To test for protective activity, young plants are sprayed with the preparation of active compound at the stated application rate. After the spray coating has dried on, the plants are inoculated with an aqueous spore suspension of the apple mildew pathogen Podosphaera leucotricha. The plants are then placed in a greenhouse at about 23° C. and a relative atmospheric humidity of about 70%.
(§3) Evaluation is carried out 10 days after the inoculation. 0% means an efficacy which corresponds to that of the control, whereas an efficacy of 100% means that no infection is observed.

Venturia inaequalis = experiment: Venturia test (apple)/protective; assay type: in vivo; conditions: protective, application rate 100 g/ha, evaluation 10 days after inoculation
Description: as §1, §2
To test for protective activity, young plants are sprayed with the preparation of active compound at the stated application rate. After the spray coating has dried on, the plants are inoculated with an aqueous conidia suspension of the apple scab pathogen Venturia inaequalis and then remain in an incubation cabinet at about 20° C. and 100% relative atmospheric humidity for one day.
The plants are then placed in a greenhouse at about 21° C. and a relative atmospheric humidity of about 90%.
as §3

Botrytis cinerea = experiment: Botrytis test (bean)/protective; assay type: in vivo; conditions: protective, application rate 500 g/ha, evaluation 2 days after inoculation
Description: as §1
To produce a suitable preparation of active compound, 1 part by weight of active compound is mixed with the stated amounts of solvent and emulsifier, and the concentrate is diluted with water to the desired concentration.
To test for protective activity, young plants are sprayed with the preparation of active compound at the stated application rate. After the spray coating has dried on, 2 small pieces of agar colonized by Botrytis cinerea are placed onto each leaf. The inoculated plants are placed in a dark chamber at about 20° C. and 100% relative atmospheric humidity.
2 days after the inoculation, the size of the infected areas on the leaves is evaluated. 0% means an efficacy which corresponds to that of the control, whereas an efficacy of 100% means that no infection is observed.

Compound: Cc1nn(C)c(F)c1C(=O)N(C)c1ccccc1C(C)CC(C)(C)C (centres unmarked)
Efficacy in % (Puccinia recondita): 100%

Compound: Cc1nn(C)c(F)c1C(=O)N(C)c1ccccc1C(C)CC(C)C (centres unmarked)
Efficacy in % (Puccinia recondita): 100%

Compound: CC(CC(C)(C)C)c1ccccc1N(C)C(=O)c1c(C(F)(F)F)nn(C)c1F (centres unmarked)
Efficacy in % (Sphaerotheca fuliginea): 100%

chromatographic logP [1]: 4.63
Compound: CC(=O)N(C(=O)c1c(C(F)(F)F)nn(C)c1F)c1ccccc1C(C)CC(C)(C)C (centres unmarked) [Example 1, N-acetyl-5-fluoro-1-methyl-3-(trifluoromethyl)-N-[2-(1,3,3-trimethylbutyl)phenyl]-1H-pyrazole-4-carboxamide]

chromatographic logP [1]: 4.4
Compound: CCOC(=O)C(=O)N(C(=O)c1c(C)nn(C)c1F)c1ccccc1C(C)CC(C)(C)C (centres unmarked) [Example 2, ethyl {[(5-fluoro-1,3-dimethyl-1H-pyrazol-4-yl)carbonyl][2-(1,3,3-trimethylbutyl)phenyl]amino}(oxo)acetate]

chromatographic logP [1]: 2.65
Compound: CC(=O)Nc1ccccc1C(C)CC(C)C (centres unmarked) [III-1, N-[2-(1,3-dimethylbutyl)phenyl]acetamide]

Compound: COCN(C(=O)c1c(C(F)(F)F)nn(C)c1F)c1ccccc1C(C)CC(C)(C)C (centres unmarked) [drawing 19]
Efficacy in % (Podosphaera leucotricha): 98%

Compound: CCOC(=O)C(=O)N(C(=O)c1c(C)nn(C)c1F)c1ccccc1C(C)CC(C)(C)C (centres unmarked) [drawing 20]
Efficacy in % (Podosphaera leucotricha): 97%

Compound: COCN(C(=O)c1c(C(F)(F)F)nn(C)c1F)c1ccccc1C(C)CC(C)(C)C (centres unmarked) [drawing 21]
Efficacy in % (Venturia inaequalis): 100%

Compound: CCOC(=O)C(=O)N(C(=O)c1c(C)nn(C)c1F)c1ccccc1C(C)CC(C)(C)C (centres unmarked) [drawing 22]
Efficacy in % (Venturia inaequalis): 100%

Compound: COCN(C(=O)c1c(C(F)(F)F)nn(C)c1F)c1ccccc1C(C)CC(C)(C)C (centres unmarked) [drawing 23]
Efficacy in % (Botrytis cinerea): 100%

Compound: CCOC(=O)C(=O)N(C(=O)c1c(C)nn(C)c1F)c1ccccc1C(C)CC(C)(C)C (centres unmarked) [drawing 24]
Efficacy in % (Botrytis cinerea): 97%

Compound: COCN(C(=O)c1c(C(F)(F)F)nn(C)c1F)c1ccccc1C(C)CC(C)(C)C (centres unmarked) [drawing 25]
Efficacy in % (Puccinia recondita): 100%

Compound: COCN(C(=O)c1c(C(F)(F)F)nn(C)c1F)c1ccccc1C(C)CC(C)(C)C (centres unmarked) [drawing 29]
Efficacy in % (Sphaerotheca fuliginea): 100%
